Results on 2 molecules are retold here after paper PMC10408569, “Recruitment of hexahydroquinoline as anticancer scaffold targeting inhibition of wild and mutants EGFR (EGFR^WT, EGFR^T790M, and EGFR^L858R)” (Journal of Enzyme Inhibition and Medicinal Chemistry, 2023).

Data set [1] relates to HOP-92 cells. Put plainly: Cell cycle analysis by flow cytometry. It is filed as cell-based, human. To be noted: HOP-92, 10 µM, 24 h; for percentage of cells at the pre-G1 phase: control 3.05%; for cells at G2/M: control 12.98%; for proportion of cells in the S phase: control 31.46%; for percentage of cells in the G0/G1: control 55.38%. The protocol:
Antitumor drugs can cause cell cycle arrest and death via activating signalling pathways[85]^,[86]. Cell growth in various cell cycle phases is measured by flow cytometry[87]^,[88]. […] We have treated HOP-92 cells with 10 µM of compounds 10c and 10d to incubate for 24 h. […] According to these observations, Compounds 10c and 10d induce apoptosis in NSC lung cancer, HOP-92, cells via cell cycle arrest at the pre-G1 phase as well as the G2/M phase (Figure 8(D)). […]
[…] Cellular mechanistic analysis
The examination of the cell cycle was done using flow cytometry. The test compound was applied to HOP-92 cells before they were cultured for 24 hours at 37 °C, 5% CO 2. After gathering and centrifuging the cell pellets, they were fixed in 70% (v/v) ethanol unde r the ice for 15 minutes. Pellets were once more collected and then incubated in a solution of 50 µg/mL propidium iodide (PI) and […]
0.1 mg/mL RNAse. […]
(In flow cytometry, cells or beads pass a laser one at a time.)

The test system of data set [2] is HOP-92 cells. In words: Annexin V-FITC apoptosis assay. Type of data set: cell-based, human. The note with it: for total apoptosis, fold more than control / total apoptosis percentage: HOP-92; for early apoptosis ratio / late apoptosis ratio: HOP-92, 10 µM, 24 h; for early apoptosis ratio: control (DMSO) 0.70%; for late apoptosis ratio: control (DMSO) 1.80%; for total apoptosis percentage: control 2.5%. From the text:
The most important mechanism chemotherapeutics eradicate cancer cells is apoptosis induction[78]^,[79]. Cellular alterations brought on by apoptosis include the translocation of phosphatidylserine (PS) from the inside to the outside via the plasma membrane[80]^,[81]. PS can be detected outside the plasma membrane using a sensitive probe called Annexin V, which can bind to PS[82]^,[83]. […] HOP-92 cells were also overexpressed in NSC lung cancer. Therefore, they were selected to be subjected to apoptosis assay. HOP-92 cells were stained with AV/PI for 24 h at a mixed molar concentration of 10 µM with compounds 10c and 10d (Figure 7(A,B)). […] These findings supported that the cytotoxic effects of compounds 10c and 10d were due to the apoptotic mechanism rather than the necrotic pathway. The results of compounds 10c and 10d compared to the control sample are presented as a bar chart (Figure 7(D)).
[…] Annexin V-FITC apoptosis assay
A protein known as annexin V-fluorescein isothiocyanate (Annexin V-FITC) binds phosphatidyl serine PS, which can be seen by staining. They used Annexin V-FITC and a propidium iodide counterstain (PI). Apoptosis was first induced by incubating cells in 96-microwell plates at a density of […] with the addition of the test substance (100 µL) for 24 hours. Then, 1-5 × 10^5 cells were centrifuged and resuspended in 500 µL of binding buffer. PI (5 µL) and Annexin V - FITC (5 µL) were added, and the mixture was incubated at room temperature for 5 minutes in the dark. An nexin -V -FITC binding was analyzed using A FACS C alibur flow cytometer (BD Biosciences, San Jose, CA). […]

Data set [3] can be described thus: Cytotoxic effects in vitro on normal lung cells. To be noted: IMR-90 normal lung fibroblast cells; human normal lung fibroblast (IMR-90); read-out: IC50, cytotoxicity towards human normal cells IMR-90. It is filed as cell-based.
A further data set relates to NCI-H23. In words: NCI-60 anticancer screening (SRB). Type of data set: cell-based. The note with it: Homo sapiens, five doses 0.01-100 µM, 48 h.

The term IC50 denotes the concentration that gives 50% inhibition. The term GI50 denotes the concentration giving 50% growth inhibition. Read a low GI50 as more potent growth inhibition. As for `CCOC(=O)C1=C(N)N(c2ccccc2)C2=C(C(=O)CC(C)(C)C2)C1c1ccc(Cl)cc1Cl` (racemic) [10c, (±)-Ethyl 2-amino-4–(2,4-dichlorophenyl)-7,7-dimethyl-5-oxo-1-phenyl-1,4,5,6,7,8-hexahydroquinoline-3-carboxylate], in the data set on HOP-92 cells [1], the “percentage of cells at the pre-G1 phase” value is recorded as 25.82%, the “cells at G2/M” value turned out to be 34.07%, the “proportion of cells in the S phase” value amounted to 20.18% and the “percentage of cells in the G0/G1” value is 45.75%. Moreover, in the data set with HOP-92 cells [2], the “total apoptosis, fold more than control” value was “approximately 10 fold”; the early apoptosis ratio amounted to 8.74%; the late apoptosis ratio is recorded as 15.44%; the total apoptosis percentage came to 24.18%. Moreover, in data set [3], the 50% inhibitory concentration (IC50) came out at 62.2 ± 3.14 µM. In the data set on NCI-H23, this molecule displayed a GI50 of 2.51 µM.

Regarding `CCOC(=O)C1=C(N)N(c2ccc(Cl)cc2)C2=C(C(=O)CC(C)(C)C2)C1c1ccc(Cl)cc1Cl` (racemic) [10d, (±)-Ethyl 2-amino-1–(4-chorophenyl)-4–(2,4-dichlorophenyl)-7,7-dimethyl-5-oxo-1-phenyl-1,4,5,6,7,8-hexahydroquinoline-3-carboxylate], in the data set on HOP-92 cells [1], the “percentage of cells at the pre-G1 phase” value was 21.55%, the “cells at G2/M” value is 49.21%, the “proportion of cells in the S phase” value is given as 25.42% and the “percentage of cells in the G0/G1” value was determined as 25.37%. In the data set on HOP-92 cells [2], the “total apoptosis, fold more than control” value is reported as roughly 8 fold; the early apoptosis ratio is recorded as 7.68%; the late apoptosis ratio was found to be 12.15%; the total apoptosis percentage came out at 19.83%. Besides, in data set [3], the half-inhibitory concentration (IC50) was 55.5 ± 2.57 µM.
